Reference: patent US5314920A, “Ethynyl-alanine aryl/alkylsulfonyl-terminated amino-diol compounds for treatment of hypertension” (G. D. Searle & Co., priority 1992, dated 1994)
Values belong to the compound of their own block, whether it stands above or below them. Non-standard residues stand in square brackets, D forms with d. Residues, ends and D or L forms follow the SMILES beside them. *: point of attachment. Sta = CC(C)C[C@H](N)[C@@H](O)CC(=O)O; Isovaleryl = CC(C)CC(=O)*

Tests used:
human renin = biological target: T1, human renin (Homo sapiens, UniProt P00797); test: Human Renin Inhibition in vitro; type: biochemical; conditions: pH 7.4, 37° C., two hours, human plasma, angiotensin I by radioimmunoassay
T1 construct: purchased National Institute for Biological Standards, London
T1 sequence (P00797 67-406): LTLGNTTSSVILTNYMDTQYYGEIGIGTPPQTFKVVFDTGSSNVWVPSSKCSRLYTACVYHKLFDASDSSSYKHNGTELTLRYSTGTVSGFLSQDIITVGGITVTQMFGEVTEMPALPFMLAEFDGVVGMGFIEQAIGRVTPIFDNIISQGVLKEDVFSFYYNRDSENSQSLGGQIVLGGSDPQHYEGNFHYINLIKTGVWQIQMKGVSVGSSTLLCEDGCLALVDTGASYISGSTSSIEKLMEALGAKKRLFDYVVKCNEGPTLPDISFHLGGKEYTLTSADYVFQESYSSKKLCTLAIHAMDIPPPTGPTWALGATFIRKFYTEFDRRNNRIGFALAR
Experimental: Compounds of Formula I were evaluated as inhibitors of human renin in an vitro assay, as follows: This human renin inhibition test has been previously described in detail [Papaioannou et al., Clinical and Experimental Hypertension, A7 (9), 1243-1257 (1985)]. Human renin was obtained from the National Institute for Biological Standards, London. An incubation mixture was prepared containing the following components: in a total volume of 0.25 mL: 100 mM Tris-acetate buffer at pH 7.4, 25×10^-6 Goldblatt units of renin, 0.05 mL of plasma from human volunteers taking oral contraceptives, 6.0 mM Na-EDTA, 2.4 mM phenylmethyl sulfonyl fluoride, 1.5 mM 8-hydroxyquinoline, 0.4 mg/mL bovine serum albumin (BSA), and 0.024 mg/mL neomycin sulfate. This mixture was incubated for two hours at 37° C. in the presence or absence of renin inhibitors. The produced angiotensin I was determined by radioimmunoassay (New England Nuclear kit). Test compounds to be assayed were dissolved in DMSO and diluted with 100 mM Tris-acetate buffer at pH 7.4 containing 0.5% BSA to the appropriate concentration. The final concentration of organic solvent in the reaction mixture was less than 1%. Control incubations at 37° C. were used to correct for effects of organic solvent on renin activity.

hog renin = conditions: after the injection of hog renin into nephrectomized rats; Gross et al, Science, 175, 656 (1971); cited from earlier work
pepsin = conditions: Umezawa et al, J. Antibiot. (Tokyo), 23, 259-262 (1970); cited from earlier work
cathepsin D = conditions: Umezawa et al, J. Antibiot. (Tokyo), 23, 259-262 (1970); cited from earlier work
renin = conditions: Umezawa et al, J. Antibiot. (Tokyo), 23, 259-262 (1970); cited from earlier work

- IC50 (human renin): 0.23 nM
SMILES: C#CC[C@H](NC(=O)C(Cc1ccccc1)CS(=O)(=O)C(C)(C)C)C(=O)N[C@@H](CC1CCCCC1)[C@@H](O)[C@@H](O)CC(C)C (stereo partly drawn) [Example 1, N-[[1R*-[[1S,1R*(cyclohexylmethyl)-2S*,3R*-dihydroxy-5-methylhexyl]amino]carbonyl]-3-butynyl]-α-[[(1,1-dimethylethyl)sulfonyl]methyl]benzenepropanamide]

- IC50 (human renin): 0.17 nM
SMILES: C#CC[C@H](NC(=O)[C@H](Cc1ccccc1)CS(=O)(=O)C(C)(C)C)C(=O)N[C@@H](CC1CCCCC1)[C@@H](O)[C@@H](O)CC(C)C [Example 2, N-[[1R*-[[1S,1R*(cyclohexylmethyl)-2S*,3R*-dihydroxy-5-methylhexyl]amino]carbonyl]-3-butynyl]-αR*-[[(1,1-dimethylethyl)sulfonyl]methyl]benzenepropanamide]

- inhibition at 0.1 µM (human renin; @ 100 nM): 34%
SMILES: C#CC[C@H](NC(=O)CCS(=O)(=O)c1ccccc1)C(=O)N[C@@H](CC1CCCCC1)[C@@H](O)[C@@H](O)CC(C)C [Example 3, N-[1S,1R*(cyclohexylmethyl)-2S*,3R*-dihydroxy-5-methylhexyl]-2R*-[[1-oxo-3-[phenylsulfonyl]propyl]amino]-4-pentynamide]

SMILES: CC(C)CC(=O)N[C@H](C(=O)N[C@H](C(=O)N[C@@H](CC(C)C)[C@@H](O)CC(=O)N[C@@H](C)C(=O)N[C@@H](CC(C)C)[C@@H](O)CC(=O)O)C(C)C)C(C)C [pepstatin] (Isovaleryl-VV[Sta]A[Sta]-OH)
- blood pressure in vivo (hog renin): reduce blood pressure
- inhibitor of pepsin (pepsin): inhibitor
- inhibitor of cathepsin D (cathepsin D): inhibitor
- inhibitor of renin (renin): inhibitor
